Consider 1 compound from patent publication US20260193294A1, “POLYPEPTIDE INHIBITOR, AND PREPARATION METHOD THEREFOR AND USE THEREOF” (SHANGHAI HANSOH BIOMEDICAL CO., LTD., priority 2022, published 2026).

A short description of one data set: in vivo. As to conditions: male, SD, rat, iv, 1 mg/kg.
Data set [1] deals with IL23-induced rat otitis model. As to the kind of experiment: In vivo pharmacodynamics in IL23-induced rat otitis model (ear thickening). Further details: species or system SD rats. As to conditions: 10 mg/kg, gavage, QD. The text has this: To evaluate the in vivo efficacy of the compounds in an IL23-induced rat otitis model.
SD rats, 6-8 weeks old, male, purchased from Jiangsu GemPharmatech Co., Ltd.
• a. […]

The nature of data set [2]: Stability in plasma (human). Conditions: human, plasma. In kind it is in vitro ADME. The procedure: (§1) To study the stability of the compounds of the examples in the plasmas of mice, rats, dogs and humans.
(§2) Preparation of plasma: Animal or human whole blood was collected, then put into a test tube containing an anticoagulant, and centrifuged at 3500 rpm for 10 min, and the upper pale yellow plasma was collected; • working solution of 10 μM test compound: a stock solution was prepared with DMSO, and the working solution was prepared with 100 mM phosphate buffer; • working solution of 10 μM positive control: • procaine: 2.36 mg of procaine was weighed and diluted into a 10 mM stock solution with 1 mL of DMSO. 10 μL of the 10 mM stock solution was pipetted into 1 mL of 100 mM phosphate buffer, such that the final concentration was 100 μM; and • enalapril: 4.93 mg of enalapril was weighed and diluted into a 10 mM stock solution with 1 mL of DMSO; and 10 μL of the 10 mM stock solution was pipetted into 1 mL of 100 mM phosphate buffer, such that the final concentration was 100 μM.
(§3) In a 96-well plate, 285 μL of plasma and 15 μL of 10 μM compound (test compound, and positive control) were successively added and incubated at 37° C.
(§4) 40 μL was taken at 0, 15, 30, 60, 90, and 120 min (sampling points could be fine-tuned), respectively, and 160 μL of an acetonitrile stop solution containing an internal standard was added.
(§5) After centrifugation (3500 rpm, 10 min), 50 μL of the supernatant was taken, diluted by adding 50 μL of DDH2O, and then injected for LC-MS/MS.
(§6) • Instrument: Shimadzu LC-20 AD • Chromatographic column: Phenomenex Gemiu® C18 (50*4.6 mm, 5 μm particle size) • Mobile phase: A: acetonitrile, B: 0.1% formic acid solution • Elution gradient: […]: 5% A→95% A, 2.0-2.1 min: […] • Flow rate: 0.8 mL/min • Run time: 5.0 min • Injection volume: 5 μL
(§7) • Instrument: API4000 liquid chromatography mass spectrometer, AB, US • Ion source: electrospray ionization source (ESI) • Drying gas: N2, temperature 500° C. • Electrospray voltage: 5500V • Detection mode: positive ion detection • Scan mode: multi reaction monitoring (MRM) mode • Scan time: 0.1 s
(§8) All calculations were carried out using Microsoft Excel. The peak area ratio was determined by an extracted ion chromatogram.
(§9) The residual percentage of the compound at each time point was calculated by the following equation: Residual percentage at t hours (%)=peak area ratio at t hours/peak area ratio at 0 hour×100%, in which the peak area ratio at t hr was the peak area ratio of the […] at t min; and • the slope value k was determined by linear regression on the natural logarithm of the curve of the residual percentage of the parent drug versus the incubation time.
(§10) In vitro half-life (in vitro t1/2) was determined by the slope value: […]

Data set [3] relates to activation of STAT3 phosphorylation by hIL23 in DB cells. The data set is described as follows: Blocking the activation of STAT3 phosphorylation by hIL23 in DB cells (p-STAT3 ELISA). The class given is cell-based, Human. As to conditions: DB cells stimulated by rhIL-23 0.5 nM, half an hour; read-out: pStat3 IC50. The procedure: To determine the inhibitory activity of the compounds of the present disclosure on the activation of STAT3 phosphorylation by hIL23 in DB cells
The compounds produced above were added to DB (ATCC Cat #CRL-2289) cells to inhibit the signal transduction of rhIL-23 cytokine. The screening of compounds was carried out by a multi-well plate (suitable for ELISA assay). Generally, in the presence of some of the above compounds of the present disclosure, 6.25×10^6 cells/ml of DB cells were stimulated by rhIL-23 (0.5 nM, R&D SYSTEMS) in RPMI medium (Invitrogen) containing 10% of FBS, and after half an hour, lysis was carried out on ice using 50 μL of 2×lysis buffer (CST). The content of p-STAT3 in the lysate was determined by PathScan Phospho-Stat3 (Tyr705) Sandwich ELISA Kit (CST Cat #7300C), so as to calculate the activity of the compounds of the present disclosure in blocking rhIL23 signal transduction in DB cells.
The inhibition rate was calculated as follows: […]
By using log (inhibitor) vs. response—Variable slope (four parameters) in Graphpad, the data of ELISA experiment results were subjected to non-linear regression fitting to fit a curve and obtain the IC50 value.
Background: In an ELISA, binding on a coated surface is turned into a signal by an enzyme label.

Data set [4] in a line: Pharmacokinetic determination in rats (IV). Conditions: male, SD, rat, plasma, 1 mg/kg.
Protocol: SD rats were used as test animals to study the pharmacokinetic behavior of the compounds of the examples in the rats (plasma) after oral or IV administration.
Preparation of intravenous drug: PBS
The compounds of the examples were weighed and dissolved in this solution, vortexed, ultrasonicated for 5 min, and filtered through a 0.22 μm filter membrane to obtain colorless clear solutions with a concentration of 0.2 mg/mL.
3 SD rats/group, male were fasted overnight and then respectively administered IV at a dose of 1 mg/kg and a volume of 5 mL/kg.
• Before administration and at 0.083 h, 0.25 h, 0.5 h, 1.0 h, 2.0 h, 4.0 h, 6.0 h, 8.0 h, and 24.0 h after administration (IV), 0.2 mL of blood was collected from the jugular vein, placed in an EDTA-2K test tube, and centrifuged at 6000 rpm for 6 min at 4° C. to separate plasma, which was stored at −20° C.; and the rats were fed 4 h after administration.
1) Acetonitrile (200 μL) was added to the plasma sample (50 μL) for precipitation, and the mixture was mixed and centrifuged at 4500 rpm for 15 min.
2) The treated supernatant solution was taken and subjected to LC/MS/MS to analyze the concentrations of the test compounds. LC/MS/MS analysis instrument: AB Sciex Triple Quad 6500+.
• Liquid phase conditions: Shimadzu LC-30AD pump • Chromatographic column: HALO 90A PFP 2.7 μm 2.1×30 mm, mobile phase: liquid A: 5% acetonitrile aqueous solution (0.1% formic acid), and liquid B: an aqueous solution of 95% acetonitrile (0.1% formic acid) • Flow rate: 0.6 mL/min • Elution time: 0-2.0 min, the eluent was as follows:
The main pharmacokinetic parameters were calculated using WinNonlin 8.1.
Another data set is described as follows: in vitro. The class given is in vitro ADME. Conditions: plasma. The procedure: as §1, §2, §3, §4, §5, §6, §7, §8, §9, §10

Molecules are shown by their SMILES. Positions of bridges follow the written chain, without caps; N, C: chain ends. Non-standard residues stand in square brackets, D forms with d. Residues, ends and D or L forms follow the SMILES beside them. *: point of attachment. X1 = CN(CCNC(=O)CCOCCOCC[N+](C)(C)CCNC(=O)COCCOCCNC(=O)COCCOCCNC(=O)CC[C@H](NC(=O)CCCCCCCCCCCCCCC(=O)O)C(=O)O)*; Trp(7-Me) = Cc1cccc2c(C[C@H](N)C(=O)O)c[nH]c12; 2Nal = N[C@@H](Cc1ccc2ccccc2c1)C(=O)O; AEF = NCCOc1ccc(C[C@H](N)C(=O)O)cc1; 3Pal = N[C@@H](Cc1cccnc1)C(=O)O; Pen = CC(C)(S)[C@H](N)C(=O)O; Thp = NC1(C(=O)O)CCOCC1

One may read the half-life as the time needed for the level to fall by half in the phase considered. Read a low half-life as fast loss. The fraction remaining is the share of the starting amount still present when the sample was taken. A high value points to less turnover. As usually defined, the IC50 is the midpoint of a concentration-inhibition curve. In general, AUC(0-inf) refers to total exposure, with the tail of the curve extrapolated. Low readings indicate low exposure, high ones high exposure. As usually defined, the AUC(0-t) is the area under the concentration-time curve up to a stated or last time point. Read a low AUC(0-t) as low exposure. What is called MRT is the average time that molecules of a dose stay in the body. As a reminder, the clearance is the volume of plasma or blood freed of the substance per unit of time. In “in vivo”, `CC(=O)NCCCC[C@@H]1NC(=O)[C@H](Cc2c[nH]c3c(C)cccc23)NC(=O)[C@H]([C@@H](C)O)NC(=O)[C@H](CC(N)=O)NC(=O)[C@@H](NC(C)=O)C(C)(C)SSC(C)(C)[C@@H](C(=O)N[C@@H](Cc2ccc(OCCN)cc2)C(=O)N[C@@H](Cc2ccc3ccccc3c2)C(=O)NC2(C(=O)N[C@@H](CCC(=O)O)C(=O)N[C@@H](CC(N)=O)C(=O)N[C@@H](Cc3cccnc3)C(=O)N(C)CCNC(=O)CCOCCOCC[N+](C)(C)CCNC(=O)COCCOCCNC(=O)COCCOCCNC(=O)CC[C@H](NC(=O)CCCCCCCCCCCCCCC(=O)O)C(=O)O)CCOCC2)NC1=O` [Example 1] (Ac-[Pen]NT[Trp(7-Me)]K(Ac)[Pen][AEF][2Nal][Thp]EN[3Pal]-X1; disulfide 1-6) had a half-life of 4.9 h. The “Inhibition rate on Day 4 (ear thickening)” value in data set [1] is recorded as 51.22%. For the same compound, in data set [2], the half-life at 0.5 μM was 64.6 h and the share remaining at 4 h, 0.5 µM worked out at 94.3%. Moreover, the IC50 in data set [3] was 0.025 nM. Besides, in data set [4], the area under the curve AUC(0-inf) turned out to be 46700 ng·h/mL, the AUC(0-t) turned out to be 45400 ng·h/mL, the C0 was 10300 ng/mL and the MRT came to 6.1 h. The compound further showed a clearance in data set [4] of 0.35 mL/min/kg. In “in vitro” (dog), this compound showed a half-life at 0.5 μM of 148 h and a share remaining at 4 h, 0.5 µM of 99.7%. In the data set “in vitro” (mouse), this compound had a half-life at 0.5 μM of 32 h and a share remaining at 4 h, 0.5 µM of 93.8%. Also, in “in vitro” (rat), the half-life at 0.5 μM is 75.7 h and the amount remaining at 4 h, 0.5 µM was found to be 98.7%.
